Assay results taken from article PMC10121968, “Fosgonimeton, a Novel Positive Modulator of the HGF/MET System, Promotes Neurotrophic and Procognitive Effects in Models of Dementia” (Neurotherapeutics, 2022).
Non-standard residues stand in square brackets, D forms with d. Residues, ends and D or L forms follow the SMILES beside them. *: point of attachment. Hexanoyl = CCCCCC(=O)*; Ahx = NCCCCCC(=O)O

Assays:
[1] = test system: primary rat hippocampal neurons; experiment: Neurite outgrowth assay (beta-III tubulin staining); format: cell-based; conditions: 4 days, vs vehicle
Description: On day 0, rat hippocampal neurons from newborn pups were isolated and cultured in brain neuronal culture medium (neurobasal medium supplemented with 5% FBS, 2% B-27 supplement, and 0.003% gentamycin) at 37 °C under 5% CO2. At 1 day in vitro (DIV1), cells were transferred to a poly-D-lysine–coated 24-well plate at approximately 10,000 cells/well. Cells were then grown in […] of serum-free medium and treated with the following: 0.1% dimethyl sulfoxide (DMSO; vehicle), 10 nM dihydrotestosterone (positive control), 10 nM fosgo-AM, 1 nM fosgo-AM, 5 ng/ml HGF, or 5 ng/ml HGF + 1 nM fosgo-AM. All treatments contained a final concentration of 0.1% DMSO. For the neurite outgrowth assay, treatment media were refreshed on DIV3, and cells were processed for analysis on DIV4. For the synaptogenesis assay, treatment media were refreshed on DIV3 and DIV6, and cells were processed for analysis on DIV8. Processing for both the neurite outgrowth and the synaptogenesis assays was performed as follows: media were removed, and cells were fixed with 100% methanol for 20 min at RT before methanol was aspirated and each well was washed twice with Dulbecco’s phosphate-buffered saline (DPBS). Cells were permeabilized using 0.02% […] (ThermoFisher, Waltham, Massachusetts) in DPBS for 2 min at RT without shaking, and plates were blocked with 5% bovine serum albumin (BSA) in DPBS for 1 h at RT. Plates were then incubated overnight at 4 °C with gentle shaking with use of beta-III tubulin antibody (ab201740; Abcam, Boston, Massachusetts) to assess neurite outgrowth or with use of 1:500 rabbit anti–synaptobrevin-II antibody (Synaptic Systems, cat# 104 202, Göttingen, Germany) to assess synaptogenesis. After overnight incubation, plates were washed 3 times with DPBS and incubated for 1 h at RT with use of anti–rabbit immunoglobulin G–secondary antibody conjugated to Alexa Fluor 488 (Life Technologies, Carlsbad, California, 1:500). After 5 DPBS washes, coverslips were mounted on slides using fluorescent mounting medium (Golden Bridge International Labs, Bothell, Washington, cat# E19-s). Imaging was performed using the BX43 Olympus microscope driven by the standard “CellSens” software by Olympus. […] Ten images of single cells from a total of 2 assays were analyzed using NeuroJ plug-in for ImageJ to assess neurite outgrowth, as neurite length and the number of branches per neuron were counted for each cell. For the synaptogenesis assay, synaptic count (number of synapses) and synaptic strength (relative abundance of presynaptic vesicles per synapse as measured by synaptobrevin-II fluorescence intensity) were quantified for each cell. Data were assessed for normality (Shapiro–Wilk) and homoscedasticity (Brown-Forsythe). […]

[2] = test system: MDCK cells; experiment: MDCK cell scatter behavior assay; format: cell-based, canine; conditions: HGF 10 ng/mL + fosgo-AM 10 pM, 100 pM and 1 nM, 24 h, vs HGF alone
Description: Madin-Darby canine kidney (MDCK, ATCC CCL-34) cells were grown at 37 °C, 5% CO2 in Eagle’s Minimum Essential Medium (EMEM) + 10% FBS in T-75 flasks until 80% confluent. Cells were then plated at 1400 cells/well in black-walled, clear-bottom 96-well plates and grown at 37 °C under 5% CO2 for 24 h. Growth media were replaced by serum-free media for 2 h before treatment. Treatments containing HGF and fosgo-AM were made in serum-free media and applied in quintuplicates for 24 h at 37 °C under 5% CO2. Cells were then fixed in chilled 100% EtOH at 4 °C for 20 min and then stained with wheat germ agglutinin conjugated to CF488 (WGA488, Biotium, 29,022–1, Fremont, California) at […] in phosphate-buffered saline (PBS) for 30 min at RT to visualize whole-cell surfaces. Cultures were then imaged with an iCys instrument (iCyte, Thor Labs, Newton, New Jersey) and analyzed with the ImageJ (National Institutes of Health) particle count feature. Scattering behavior was quantified by normalizing particle counts against total stained area. […] Data were assessed for normality (Shapiro–Wilk) and homoscedasticity (Brown-Forsythe). The statistical difference from HGF alone was determined by one-way ANOVA with Dunnett’s multiple comparison post-test with an alpha value of 0.05 (Prism, GraphPad).

[3] = test system: primary rat hippocampal neurons; experiment: Synaptogenesis assay (synaptobrevin-II staining); format: cell-based; conditions: 8 days, vs vehicle
Description: On day 0, rat hippocampal neurons from newborn pups were isolated and cultured in brain neuronal culture medium (neurobasal medium supplemented with 5% FBS, 2% B-27 supplement, and 0.003% gentamycin) at 37 °C under 5% CO2. At 1 day in vitro (DIV1), cells were transferred to a poly-D-lysine–coated 24-well plate at approximately 10,000 cells/well. Cells were then grown in […] of serum-free medium and treated with the following: 0.1% dimethyl sulfoxide (DMSO; vehicle), 10 nM dihydrotestosterone (positive control), 10 nM fosgo-AM, 1 nM fosgo-AM, 5 ng/ml HGF, or 5 ng/ml HGF + 1 nM fosgo-AM. All treatments contained a final concentration of 0.1% DMSO. For the neurite outgrowth assay, treatment media were refreshed on DIV3, and cells were processed for analysis on DIV4. For the synaptogenesis assay, treatment media were refreshed on DIV3 and DIV6, and cells were processed for analysis on DIV8. Processing for both the neurite outgrowth and the synaptogenesis assays was performed as follows: media were removed, and cells were fixed with 100% methanol for 20 min at RT before methanol was aspirated and each well was washed twice with Dulbecco’s phosphate-buffered saline (DPBS). Cells were permeabilized using 0.02% […] (ThermoFisher, Waltham, Massachusetts) in DPBS for 2 min at RT without shaking, and plates were blocked with 5% bovine serum albumin (BSA) in DPBS for 1 h at RT. […] Ten images of single cells from a total of 2 assays were analyzed using NeuroJ plug-in for ImageJ to assess neurite outgrowth, as neurite length and the number of branches per neuron were counted for each cell. For the synaptogenesis assay, synaptic count (number of synapses) and synaptic strength (relative abundance of presynaptic vesicles per synapse as measured by synaptobrevin-II fluorescence intensity) were quantified for each cell. Data were assessed for normality (Shapiro–Wilk) and homoscedasticity (Brown-Forsythe). […]

[4] = test system: primary rat cortical neurons; experiment: Neuroprotection, Cell Titer-Glo cell viability assay; format: cell-based; conditions: for percentage of recovery of cell viability: 1 µM, 24 h
Description: A Cell Titer-Glo (CTG) Luminescent Cell Viability Assay (Promega, Cat #G7571, Madison, Wisconsin) was used to assess the neuroprotective potential of fosgo-AM. Brain cortices were dissected from P1–3 rat pups and homogenized in DMEM containing 10% FBS. The resulting suspension was then incubated with a DNase/papain/trypsin solution for 30 min at 37 °C, followed by incubation in a collagenase solution for 1 h. Cells were then seeded at 5000 cells/well in 384-well plates and maintained at 37 °C and 5% CO2 in Complete Neurobasal Medium supplemented with B27/GDNF/BDNF containing 10% FBS. One day later, cultures were switched to serum-free neurobasal medium supplemented with 2% B27 and maintained until neuronal maturity (35–40 DIV). Media were changed every 3 days, and fresh medium was applied 24 h before each experiment. Cells were then treated with fosgo-AM at 1 µM, 100 nM, 10 nM, or 1 nM in a 0.5% DMSO vehicle for 15 min, and subjected to several conditional insults, including 1-methyl-4-phenylpryidinium (MPP+; 500 µM), glutamate (25 µM), lipopolysaccharide (LPS; 1 µM), or hydrogen peroxide (H2O2; 1 µM) for 24 h. After 24 h, 25 µL CTG reagent was added to each well and the plate was incubated with shaking for 15 min. Luminescence measurements to assess relative levels of ATP were performed on an Envision plate reader (PerkinElmer, Waltham, Massachusetts). Data for the vehicle control were set to 100% cell viability, and data for each other group were averaged, normalized to vehicle control, and presented as mean ± SEM. Data were assessed for normality (Shapiro–Wilk) and homoscedasticity (Brown-Forsythe). Statistical analyses were performed using one-way ANOVA with Tukey’s Multiple Comparison test (Prism GraphPad, San Diego, California). A value of p < 0.05 was considered to represent a statistically significant difference.

CCCCCC(=O)N[C@@H](Cc1ccc(O)cc1)C(=O)N[C@H](C(=O)NCCCCCC(N)=O)[C@@H](C)CC [fosgo-AM] (Hexanoyl-Tyr-Ile-[Ahx]-NH2)
neurite length per cell ([1]; 1 nM fosgo-AM + 5 ng/mL HGF): significantly increased neurite length per cell | neurite length per cell ([1]; 10 nM): significant increase in neurite length per cell | number of neurite branches ([1]; HGF ± fosgo-AM): did not reach statistical significance | cell scattering behavior [2]: significant cell scattering | number of synapses (synaptic count) ([3]; 1 nM fosgo-AM + 5 ng/mL HGF): significantly increased the number of synapses | synaptobrevin-II immunofluorescence intensity (synaptic strength) ([3]; 1 nM fosgo-AM + 5 ng/mL HGF): significantly enhanced immunofluorescence intensity of synaptobrevin-II | synaptobrevin-II immunofluorescence intensity (synaptic strength) ([3]; 1 nM): significantly enhanced immunofluorescence intensity of synaptobrevin-II | percentage of recovery of cell viability ([4]; versus H2O2 (1 µM)): 144% | percentage of recovery of cell viability ([4]; versus LPS (1 µM)): 93% | percentage of recovery of cell viability ([4]; versus MPP+ (500 µM)): 85% | percentage of recovery of cell viability ([4]; versus glutamate (25 µM)): 61% | cell viability ([4]; all tested concentrations (1 nM–1 µM), against all insults (MPP+, glutamate, LPS, H2O2)): Significant improvement in cell viability
